Measured values reported in US20240294508A1, “RIP1 MODULATORS INCLUDING AZETIDINE CYCLIC UREAS, PREPARATIONS, AND USES THEREOF” (SIRONAX LTD., priority 2021, published 2024).

Tested on: HT-29 cells
Assay: HT29 cells 0FBS assay in vitro: TNF-α/SMAC mimetic/zVAD-FMK induced necroptosis, CellTiter-Glo cell viability (RIP1 inhibitory activity)
Type: cell-based
Conditions: Homo sapiens, FBS free medium, TNF-α (10 ng/ml) + SMAC mimetic (6 uM) + zVAD-FMK (10 μM), 20 hours, geometric mean EC50
Summary of the method: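 Luminescent ATP read-out (CellTiter-Glo) gave viability of HT-29 cells after 20 h at 37° C in serum-free medium containing compound and a necroptosis cocktail of 10 ng/ml TNF-α, 6 uM SMAC mimetic and 10 μM zVAD-FMK. EC50s are geometric means of 10-point curves run in duplicate.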

COCCn1nc(C)c(-c2cc(OC3CN(C(=O)N4N=CC[C@H]4c4cc(F)cc(C#N)c4)C3)c(F)cn2)c1C [Compound 20, (S)-3-fluoro-5-(1-(3-((5-fluoro-2-(1-(2-methoxyethyl)-3,5-dimethyl-1H-pyrazol-4-yl)pyridin-4-yl)oxy)azetidine-1-carbonyl)-4,5-dihydro-1H-pyrazol-5-yl)benzonitrile]
EC50: 0.1 to 100 nM

Cn1ncc(F)c1-c1cc(OC2CN(C(=O)N3N=CC[C@H]3c3cncc(F)c3)C2)c(F)cn1 [Compound 45, (S)-(3-((5-fluoro-2-(4-fluoro-1-methyl-1H-pyrazol-5-yl)pyridin-4-yl)oxy)azetidin-1-yl)(5-(5-fluoropyridin-3-yl)-4,5-dihydro-1H-pyrazol-1-yl) methanone]
EC50: 0.1 to 100 nM

Cc1c(N)nn(C)c1-c1cc(OC2CN(C(=O)N3N=CC[C@H]3c3cncc(C#N)c3)C2)c(F)cn1 [Compound 62, (S)-5-(1-(3-((2-(3-amino-1,4-dimethyl-1H-pyrazol-5-yl)-5-fluoropyridin-4-yl)oxy)azetidine-1-carbonyl)-4,5-dihydro-1H-pyrazol-5-yl)nicotinonitrile]
EC50: 0.1 to 100 nM

Cc1ccc(C)n1-c1cc(OC2CN(C(=O)N3N=CC[C@H]3c3cc(F)cc(C#N)c3)C2)c(F)cn1 [Compound 39, (S)-3-(1-(3-((2-(2,5-dimethyl-1H-pyrrol-1-yl)-5-fluoropyridin-4-yl)oxy)azetidine-1-carbonyl)-4,5-dihydro-1H-pyrazol-5-yl)-5-fluorobenzonitrile]
EC50: 0.1 to 100 nM

Cc1nn(-c2cc(OC3CN(C(=O)N4N=CC[C@H]4c4cc(F)cc(C#N)c4)C3)c(F)cn2)c(C)c1C(=O)NC1CC1 [Compound 86, (S)-1-(4-((1-(5-(3-cyano-5-fluorophenyl)-4,5-dihydro-1H-pyrazole-1-carbonyl)azetidin-3-yl)oxy)-5-fluoropyridin-2-yl)-N-cyclopropyl-3,5-dimethyl-1H-pyrazole-4-carboxamide]
EC50: 0.1 to 100 nM

Cc1c(N)nn(C)c1-c1cc(OC2CN(C(=O)N3N=CC[C@H]3c3cncc(F)c3)C2)c(F)cn1 [Compound 61, (S)-(3-((2-(3-amino-1,4-dimethyl-1H-pyrazol-5-yl)-5-fluoropyridin-4-yl)oxy)azetidin-1-yl)(5-(5-fluoropyridin-3-yl)-4,5-dihydro-1H-pyrazol-1-yl)methanone]
EC50: 0.1 to 100 nM

Cc1cnc([C@@H]2CC=NN2C(=O)N2CC(Oc3cc(-c4c(C)cnn4C)ncc3F)C2)s1 [Compound 138, (S)-(3-((2-(1,4-dimethyl-1H-pyrazol-5-yl)-5-fluoropyridin-4-yl)oxy)azetidin-1-yl)(5-(5-methylthiazol-2-yl)-4,5-dihydro-1H-pyrazol-1-yl)methanone]
EC50: 0.1 to 100 nM

Cc1cnn(C)c1-c1nc(OC2CN(C(=O)N3N=CCC3c3cc(F)cc(F)c3)C2)c(F)cc1F (stereo not drawn) [Compound 158, (5-(3,5-difluorophenyl)-4,5-dihydro-1H-pyrazol-1-yl)(3-((6-(1,4-dimethyl-1H-pyrazol-5-yl)-3,5-difluoropyridin-2-yl)oxy)azetidin-1-yl)methanone]
EC50: 0.1 to 100 nM

Cc1nc(C2CC=NN2C(=O)N2CC(Oc3cc(-c4c(C)cnn4C)ncc3F)C2)c(C)s1 (stereo not drawn) [Compound 128, (3-((2-(1,4-dimethyl-1H-pyrazol-5-yl)-5-fluoropyridin-4-yl)oxy)azetidin-1-yl)(5-(2,5-dimethylthiazol-4-yl)-4,5-dihydro-1H-pyrazol-1-yl)methanone]
EC50: 100 to 1000 nM

Cn1ccnc1-c1cc(OC2CN(C(=O)N3N=CC[C@H]3c3cncc(F)c3)C2)c(F)cn1 [Compound 37, (S)-(3-((5-fluoro-2-(1-methyl-1H-imidazol-2-yl)pyridin-4-yl)oxy)azetidin-1-yl)(5-(5-fluoropyridin-3-yl)-4,5-dihydro-1H-pyrazol-1-yl)methanone]
EC50: 0.1 to 100 nM

Cc1nn(-c2cc(OC3CN(C(=O)N4N=CC[C@H]4c4cc(F)cc(F)c4F)C3)c(F)cn2)c(C)c1S(N)(=O)=O [Compound 124, (S)-1-(5-fluoro-4-((1-(5-(2,3,5-trifluorophenyl)-4,5-dihydro-1H-pyrazole-1-carbonyl)azetidin-3-yl)oxy)pyridin-2-yl)-3,5-dimethyl-1H-pyrazole-4-sulfonamide]
EC50: 0.1 to 100 nM

Cn1ncc(C#N)c1-c1ccc(F)c(OC2CN(C(=O)N3N=CC[C@H]3c3cncc(C#N)c3)C2)n1 [Compound 41, (S)-5-(1-(3-((6-(4-cyano-1-methyl-1H-pyrazol-5-yl)-3-fluoropyridin-2-yl)oxy)azetidine-1-carbonyl)-4,5-dihydro-1H-pyrazol-5-yl)nicotinonitrile]
EC50: 0.1 to 100 nM

Cc1ncc(C2CC=NN2C(=O)N2CC(Oc3cc(-c4c(C)cnn4C)ncc3F)C2)s1 (stereo not drawn) [Compound 88, (3-((2-(1,4-dimethyl-1H-pyrazol-5-yl)-5-fluoropyridin-4-yl)oxy)azetidin-1-yl)(5-(2-methylthiazol-5-yl)-4,5-dihydro-1H-pyrazol-1-yl)methanone]
EC50: 0.1 to 100 nM

Cc1nn(-c2cc(OC3CN(C(=O)N4N=CC[C@H]4c4cc(F)cc(C#N)c4)C3)c(F)cn2)c(C)c1C(N)=O [Compound 70, (S)-1-(4-((1-(5-(3-cyano-5-fluorophenyl)-4,5-dihydro-1H-pyrazole-1-carbonyl)azetidin-3-yl)oxy)-5-fluoropyridin-2-yl)-3,5-dimethyl-1H-pyrazole-4-carboxamide]
EC50: 0.1 to 100 nM

Cn1ncc(F)c1-c1cc(OC2CN(C(=O)N3N=CC[C@H]3c3cncc(C#N)c3)C2)c(F)cn1 [Compound 46, (S)-5-(1-(3-((5-fluoro-2-(4-fluoro-1-methyl-1H-pyrazol-5-yl)pyridin-4-yl)oxy)azetidine-1-carbonyl)-4,5-dihydro-1H-pyrazol-5-yl)nicotinonitrile]
EC50: 0.1 to 100 nM

Cc1nn(-c2cc(OC3CN(C(=O)N4N=CC[C@H]4c4cc(F)cc(F)c4F)C3)c(F)cn2)c(C)c1C(N)=O [Compound 102, (S)-1-(5-fluoro-4-((1-(5-(2,3,5-trifluorophenyl)-4,5-dihydro-1H-pyrazole-1-carbonyl)azetidin-3-yl)oxy)pyridin-2-yl)-3,5-dimethyl-1H-pyrazole-4-carboxamide]
EC50: 0.1 to 100 nM

Cc1cn(C)c(-c2cc(OC3CN(C(=O)N4N=CC[C@H]4c4cc(F)cc(C#N)c4)C3)c(F)cn2)n1 [Compound 23, (S)-3-(1-(3-((2-(1,4-dimethyl-1H-imidazol-2-yl)-5-fluoropyridin-4-yl)oxy)azetidine-1-carbonyl)-4,5-dihydro-1H-pyrazol-5-yl)-5-fluorobenzonitrile]
EC50: 0.1 to 100 nM

Cn1ccnc1-c1cc(OC2CN(C(=O)N3N=CC[C@H]3c3cncc(C#N)c3)C2)c(F)cn1 [Compound 38, (S)-5-(1-(3-((5-fluoro-2-(1-methyl-1H-imidazol-2-yl)pyridin-4-yl)oxy)azetidine-1-carbonyl)-4,5-dihydro-1H-pyrazol-5-yl)nicotinonitrile]
EC50: 100 to 1000 nM

Cc1ccn(C)c(=O)c1-c1cc(OC2CN(C(=O)N3N=CC[C@H]3c3cc(F)cc(F)c3)C2)c(F)cn1 [Compound 168, (S)-4-((1-(5-(3,5-difluorophenyl)-4,5-dihydro-1H-pyrazole-1-carbonyl)azetidin-3-yl)oxy)-5-fluoro-1′,4′-dimethyl-[2,3′-bipyridin]-2′(1′H)-one]
EC50: 1000 to 10000 nM

Cn1ncc(Cl)c1-c1ncc(F)c(OC2CN(C(=O)N3N=CC[C@H]3c3cc(F)cc(C#N)c3)C2)n1 [Compound 16]
EC50: 0.1 to 100 nM

Cn1cc(-c2cc(OC3CN(C(=O)N4N=CC[C@H]4c4cc(F)cc(C#N)c4)C3)c(F)cn2)nn1 [Compound 14, (S)-3-fluoro-5-(1-(3-((5-fluoro-2-(1-methyl-1H-1,2,3-triazol-4-yl)pyridin-4-yl)oxy)azetidine-1-carbonyl)-4,5-dihydro-1H-pyrazol-5-yl)benzonitrile]
EC50: 100 to 1000 nM

Cc1cnn(C)c1-c1nc(OC2CN(C(=O)N3N=CC[C@H]3c3cc(F)cc(F)c3)C2)sc1Cl [Compound 149, (S)-(3-((5-chloro-4-(1,4-dimethyl-1H-pyrazol-5-yl)thiazol-2-yl)oxy)azetidin-1-yl)(5-(3,5-difluorophenyl)-4,5-dihydro-1H-pyrazol-1-yl)methanone]
EC50: 0.1 to 100 nM

Cc1cnn(C)c1-c1cc(OC2CN(C(=O)N3N=CCC3c3ccccn3)C2)c(F)cn1 (stereo not drawn) [Compound 100, (3-((2-(1,4-dimethyl-1H-pyrazol-5-yl)-5-fluoropyridin-4-yl)oxy)azetidin-1-yl)(5-(pyridin-2-yl)-4,5-dihydro-1H-pyrazol-1-yl)methanone]
EC50: 0.1 to 100 nM

Cc1c(-c2cc(OC3CN(C(=O)N4N=CC[C@H]4c4cccc(F)c4)C3)c(F)cn2)nn(C)c1C(N)=O [Compound 111, (S)-3-(5-fluoro-4-((1-(5-(3-fluorophenyl)-4,5-dihydro-1H-pyrazole-1-carbonyl)azetidin-3-yl)oxy)pyridin-2-yl)-1,4-dimethyl-1H-pyrazole-5-carb oxamide]
EC50: 0.1 to 100 nM

Cc1nc(C#N)c(C)n1-c1cc(OC2CN(C(=O)N3N=CC[C@H]3c3cncc(F)c3)C2)c(F)cn1 [Compound 68, (S)-1-(5-fluoro-4-((1-(5-(5-fluoropyridin-3-yl)-4,5-dihydro-1H-pyrazole-1-carbonyl)azetidin-3-yl)oxy)pyridin-2-yl)-2,5-dimethyl-1H-imidazole-4-carbonitrile]
EC50: 100 to 1000 nM

Cc1ncsc1-c1cc(OC2CN(C(=O)N3N=CC[C@H]3c3cc(F)cc(C#N)c3)C2)c(F)cn1 [Compound 18, (S)-3-fluoro-5-(1-(3-((5-fluoro-2-(4-methylthiazol-5-yl)pyridin-4-yl)oxy)azetidine-1-carbonyl)-4,5-dihydro-1H-pyrazol-5-yl)benzonitrile]
EC50: 0.1 to 100 nM

Cc1cnc([C@H]2CC=NN2C(=O)N2CC(Oc3cc(-c4c(C)cnn4C)ncc3F)C2)s1 [Compound 137, (R)-(3-((2-(1,4-dimethyl-1H-pyrazol-5-yl)-5-fluoropyridin-4-yl)oxy)azetidin-1-yl)(5-(5-methylthiazol-2-yl)-4,5-dihydro-1H-pyrazol-1-yl)methanone]
EC50: 1000 to 10000 nM
